Assays:
MDM2 [1] = molecular target: T1, MDM2 (Homo sapiens, UniProt P19338+Q00987); assay: MDM2 protein degradation in A549 non-small cell lung cancer cells, western blot; assay type: cell-based; conditions: A549, 200 nM, 3 h
T1 construct: endogenous in cells; host or cells: A549
Method: (1) A549 non-small cell lung cancer cells were incubated with 200 nM AS1411-VH032, and corresponding cell samples were collected at time gradients of 0 h, 3 h, 6 h, 9 h, 12 h, and 24 h for protein extraction and subsequent western blot assay to detect protein degradation.
(2) A549 non-small cell lung cancer cells were incubated with AS1411-VH032 at concentrations of 0 nM, 50 nM, 100 nM, 150 nM, 200 nM, and 250 nM. After 3 h, cell samples were collected for protein extraction and subsequent western blot assay to detect protein degradation.
(3) A549 non-small cell lung cancer cells were incubated with 200 nM AS1411, VH032, AS1411-VH032, or AS1411+VH032. After 3 h, cell samples were collected for protein extraction and subsequent western blot assay to detect protein degradation.
(4) A549 non-small cell lung cancer cells were incubated with 200 nM AS1411-VH032 for 3 h, and proteasome inhibitor MG132 was added. Cell samples were collected for protein extraction and subsequent western blot assay.
(5) A549 non-small cell lung cancer cells were transfected with si-NC or si-NCL and subsequently incubated with 200 nM AS1411-VH032 for 3 h. Cell samples were collected for protein extraction and subsequent western blot assay.
(1) A549 non-small cell lung cancer cells were incubated with 1000 nM AS1411-AS1411, and corresponding cell samples were collected at time gradients of 0 h, 3 h, 6 h, 9 h, 12 h, and 24 h for protein extraction and subsequent western blot assay to detect protein degradation.
(2) A549 non-small cell lung cancer cells were incubated with AS1411-AS1411 at concentrations of 0 nM, 50 nM, 100 nM, 250 nM, 500 nM, and 1000 nM. After 12 h, cell samples were collected for protein extraction and subsequent western blot assay to detect protein degradation.
(3) A549 non-small cell lung cancer cells were incubated with 1000 nM AS1411, AS1411-AS1411, or AS1411+AS1411. After 12 h, cell samples were collected for protein extraction and subsequent western blot assay to detect protein degradation. […]

[2] = system: MCF 10A human normal mammary epithelial cells; assay: Toxicity to normal cells, cell apoptosis proportion by flow cytometer; assay type: cell-based; conditions: 0-5000 nM, 4 days, medium renewed every day
Method: The toxicity of AS1411 to normal cells was compared with that of the small molecule ligand nutlin-3a of MDM2 to normal cells. AS1411 or nutlin-3a at different concentrations (0 nM, 500 nM, 1000 nM, and 5000 nM) was incubated with MCF 10A human normal mammary epithelial cells for 4 days, and the medium containing the respective concentrations of AS1411 or nutlin-3a was renewed every day. The cell apoptosis proportion was detected using a flow cytometer.

NCL [3] = molecular target: T2, NCL (Homo sapiens, UniProt P19338); assay: Biotin-oligonucleotide pull-down with recombinant proteins (NCL); assay type: binding; parameters: purchased ACROBiosystems (NCL); R&D Systems (MDM2) NUL-H5253 (NCL); E3-202-050 (MDM2); conditions: 400 nM 5′-biotin label, 6 μg/mL NCL + 6 μg/mL MDM2
Method: (§1) 6 μg/mL recombinant human NCL and 6 μg/mL recombinant human MDM2 were mixed well and incubated at 4° C. for 7 h. Subsequently, 400 nM CRO, AS1411, or iSN04 labeled by biotin at the 5′ end was added, and the mixture was incubated at 4° C. for 6 h. Streptavidin agarose gel beads (purchased from cytiva, Cat. No.: 17511301) were added, and the mixture was further incubated at 4° C. overnight. The gel beads were washed 4 times with a TBST buffer, and an SDS-PAGE protein loading buffer (purchased from Beyotime, Cat. No.: P0015) was added. The mixture was heated to 100° C. and held for 10 min. After centrifugation, the supernatant was collected. The pull-down product was then detected by western blot assay.

MDM2 [4] = molecular target: T3, MDM2 (Homo sapiens, UniProt Q00987); assay: Biotin-oligonucleotide pull-down from HeLa cell lysate, western blot (MDM2); assay type: binding; parameters: HeLa cervical cancer cells were lysed with an IP lysis solution; endogenous in cells; host or cells: HeLa; conditions: 5′-biotin label, 0 nM-20 μM
Method: (§2) HeLa cervical cancer cells were lysed with an IP lysis solution (purchased from Thermo Scientific, Cat. No.: 87788) and then incubated with a CRO (cytosine-rich oligonucleotide, negative control, SEQ ID NO: 13), AS1411, or iSN04 labeled by biotin at the 5′ end at different concentrations (0 nM, 200 nM, 500 nM, 1 μM, 5 μM, 10 μM, and 20 μM) at 4° C. for 6h. Subsequently, streptavidin agarose gel beads (purchased from cytiva, Cat. No.: 17511301) were added, and the mixture was further incubated at 4° C. overnight. After the bound biotin-labeled CRO, AS411, or iSN04 and its captured proteins on the gel beads were washed multiple times with an IP lysis buffer (purchased from Thermo Scientific, Cat. No.: 87788), an SDS-PAGE protein loading buffer (purchased from Beyotime, Cat. No.: P0015) was added, and the mixture was heated to 100° C. and held for 10 min. After centrifugation, the supernatant was collected as a pull-down product. The pull-down product was detected by western blot assay.
Target sequence in this assay (P19338 2-710 partner limits assumed): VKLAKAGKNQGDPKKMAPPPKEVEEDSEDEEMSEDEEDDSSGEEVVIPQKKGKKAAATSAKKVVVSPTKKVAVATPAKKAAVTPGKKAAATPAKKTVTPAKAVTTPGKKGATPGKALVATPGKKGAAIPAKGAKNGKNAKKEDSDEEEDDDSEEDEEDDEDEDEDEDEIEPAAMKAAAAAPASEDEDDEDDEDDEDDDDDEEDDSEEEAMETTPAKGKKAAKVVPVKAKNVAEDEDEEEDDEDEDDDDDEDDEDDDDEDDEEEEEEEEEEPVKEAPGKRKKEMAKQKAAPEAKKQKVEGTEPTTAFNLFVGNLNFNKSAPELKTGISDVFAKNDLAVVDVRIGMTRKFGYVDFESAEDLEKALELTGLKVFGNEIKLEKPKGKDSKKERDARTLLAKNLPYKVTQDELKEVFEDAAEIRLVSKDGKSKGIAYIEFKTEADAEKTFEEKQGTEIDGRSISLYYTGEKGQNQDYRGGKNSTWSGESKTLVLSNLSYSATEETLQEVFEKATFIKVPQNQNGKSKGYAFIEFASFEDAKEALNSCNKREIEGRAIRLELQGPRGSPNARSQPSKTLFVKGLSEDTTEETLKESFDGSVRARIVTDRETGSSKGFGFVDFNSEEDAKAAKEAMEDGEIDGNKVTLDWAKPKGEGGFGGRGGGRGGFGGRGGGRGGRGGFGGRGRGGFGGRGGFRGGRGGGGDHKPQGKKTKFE
Target sequence in this assay (Q00987 whole entry): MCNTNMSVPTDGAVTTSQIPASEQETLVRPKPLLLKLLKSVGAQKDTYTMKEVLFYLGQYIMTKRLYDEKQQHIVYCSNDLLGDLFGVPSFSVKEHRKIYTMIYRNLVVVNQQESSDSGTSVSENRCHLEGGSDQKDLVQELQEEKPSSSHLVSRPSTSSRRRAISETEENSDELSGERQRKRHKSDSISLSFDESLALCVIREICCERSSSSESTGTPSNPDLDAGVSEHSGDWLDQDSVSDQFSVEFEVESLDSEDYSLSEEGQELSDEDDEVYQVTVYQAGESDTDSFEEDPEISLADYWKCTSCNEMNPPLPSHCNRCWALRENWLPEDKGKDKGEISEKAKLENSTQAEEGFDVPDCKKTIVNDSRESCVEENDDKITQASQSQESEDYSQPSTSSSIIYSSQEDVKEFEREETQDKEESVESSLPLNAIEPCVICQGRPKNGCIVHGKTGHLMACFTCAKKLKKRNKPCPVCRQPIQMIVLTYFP

MDM2 [5] = molecular target: T3, MDM2; assay: Biotin-oligonucleotide pull-down with recombinant proteins (MDM2); assay type: binding; parameters: purchased R&D Systems (MDM2); ACROBiosystems (NCL) E3-202-050 (MDM2); NUL-H5253 (NCL); conditions: 400 nM 5′-biotin label, 6 μg/mL NCL + 6 μg/mL MDM2
Method: as §1
Target sequence in this assay (P19338 whole entry partner): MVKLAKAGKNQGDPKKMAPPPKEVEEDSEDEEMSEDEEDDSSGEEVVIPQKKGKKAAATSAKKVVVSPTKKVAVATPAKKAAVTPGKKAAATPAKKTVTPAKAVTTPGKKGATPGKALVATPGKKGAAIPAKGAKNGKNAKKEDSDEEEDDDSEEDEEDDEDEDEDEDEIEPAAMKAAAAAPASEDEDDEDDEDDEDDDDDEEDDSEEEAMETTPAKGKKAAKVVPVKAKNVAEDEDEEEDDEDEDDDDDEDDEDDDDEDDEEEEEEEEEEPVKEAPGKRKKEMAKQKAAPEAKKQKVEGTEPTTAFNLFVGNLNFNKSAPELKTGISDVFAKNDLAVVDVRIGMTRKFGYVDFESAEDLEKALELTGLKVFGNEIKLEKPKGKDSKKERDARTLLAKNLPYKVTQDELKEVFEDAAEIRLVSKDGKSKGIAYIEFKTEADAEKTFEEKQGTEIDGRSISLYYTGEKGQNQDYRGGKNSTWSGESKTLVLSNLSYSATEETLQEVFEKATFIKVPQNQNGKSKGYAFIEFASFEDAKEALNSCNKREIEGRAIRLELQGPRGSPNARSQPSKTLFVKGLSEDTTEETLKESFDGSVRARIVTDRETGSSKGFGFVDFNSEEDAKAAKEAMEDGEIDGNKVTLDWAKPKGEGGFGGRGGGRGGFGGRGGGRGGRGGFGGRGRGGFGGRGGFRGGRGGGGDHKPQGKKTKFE
Target sequence in this assay (Q00987 whole entry): as the sequence (Q00987 whole entry) above

NCL [6] = molecular target: T2, NCL; assay: Biotin-oligonucleotide pull-down from HeLa cell lysate, western blot (NCL); assay type: binding; parameters: HeLa cervical cancer cells were lysed with an IP lysis solution; endogenous in cells; host or cells: HeLa cell lysate; conditions: 5′-biotin label, 0 nM-20 μM
Method: as §2

[7] = G4 structural characteristics, N-methyl mesoporphyrin IX (NMM) fluorescent probe; assay type: physicochemical; conditions: 1 μM NMM
Method: Both AS1411 and iSN04 are oligonucleotides specifically binding to NCL. The sequence of AS1411 is SEQ ID NO: 1, and the sequence of iSN04 is SEQ ID NO: 14. AS1411 contains a plurality of GGT motifs, and iSN04 contains one GGT motif. Whether AS1411 and iSN04 have stable G4 structural characteristics was determined. The experimental process was as follows: 5 μM NC (negative control, SEQ ID NO: 15), AS1411, or iSN04 was added to water, and the total volume was 100 μL. The mixture was heated at 95° C. for 7 min and then immediately incubated on ice for 3 min, followed by the addition of 2 μL of N-methyl mesoporphyrin IX (NMM) (purchased from MCE, Cat. No.: HY-133821) to make a final concentration of 1 μM. The resulting mixture was incubated at room temperature for 1 h in the dark. The fluorescence intensity was detected by a microplate reader, with an emission wavelength of 550-700 nm and an excitation wavelength of […].
Guanine-rich DNA sequences can form more distinct G4 structural characteristics in the presence of metal ions (usually sodium and potassium ions). 5 μM NC (negative control, SEQ ID NO: 15), AS1411, or iSN04 was added to a 100 mM K^+ solution, and the total volume was 100 μL. The mixture was well mixed, heated at 95° C. for 7 min, and then immediately incubated on ice for 3 min, followed by the addition of 2 μL of N-methyl mesoporphyrin IX (NMM) (purchased from MCE, Cat. No.: HY-133821) to make a final concentration of 1 μM. The resulting mixture was incubated at room temperature for 1 h in the dark. The fluorescence intensity was detected by a microplate reader, with an emission wavelength of 550-700 nm and an excitation wavelength of […].

[8] = molecular target: T4, interaction between NCL and MDM2 (Homo sapiens, UniProt P19338); assay: Co-immunoprecipitation of NCL and MDM2 from HeLa cell lysate, western blot; assay type: binding; conditions: 0-20 μM, 4° C. 6 h, IP with antibody against NCL
T4 construct: HeLa cervical cancer cells were lysed with an IP lysis solution; endogenous in cells; host or cells: HeLa cell lysate
Method: Co-immunoprecipitation (Co-IP) is a classical method for the study of protein interactions based on the specific interaction between an antibody and an antigen. It is an effective method to determine the physiological interaction between two proteins in intact cells.
HeLa cervical cancer cells were lysed with an IP lysis solution (purchased from Thermo Scientific, Cat. No.: 87788) and then incubated with AS 1411 or iSN04 at different concentrations (0 μM, 1 μM, 5 μM, 10 μM, and 20 μM) at 4° C. for 6 h. Subsequently, […] of an antibody against NCL was added, and the mixture was further incubated at 4° C. overnight. Protein A/G magnetic beads (purchased from Thermo Scientific, Cat. No.: 88802) were added, and the mixture was incubated with rotation at room temperature for 1.5 h. The bound NCL and its interacting proteins on the magnetic beads were washed with an IP lysis buffer (purchased from Thermo Scientific, Cat. No.: 87788), and an SDS-PAGE protein loading buffer (purchased from Beyotime, Cat. No.: P0015) was added. The mixture was heated to 100° C. and held for 10 min. The magnetic beads were adsorbed on a magnetic rack, and the supernatant was transferred into a new tube. Subsequently, western blot assay was performed to detect whether NCL bound to MDM2 and whether the binding was affected by AS 1411 or iSN04. […]

T2 sequence (P19338 whole entry): as the sequence (P19338 whole entry partner) above
T1 sequence (Q00987 whole entry): as the sequence (Q00987 whole entry) above
T1 sequence (P19338 2-710 limits assumed): as the sequence (P19338 2-710 partner limits assumed) above
T4 sequence (P19338 2-710 limits assumed): as the sequence (P19338 2-710 partner limits assumed) above

Molecule: CC(=O)N[C@H](C(=O)N1C[C@H](O)C[C@H]1C(=O)NCc1ccc(-c2scnc2C)cc1)C(C)(C)C [VH032]
- protein level of MDM2 (MDM2 [1]): neither AS1411, VH032, nor AS1411+VH032 can reduce the protein level of MDM2

Molecule: COc1ccc(C2=N[C@@H](c3ccc(Cl)cc3)[C@@H](c3ccc(Cl)cc3)N2C(=O)N2CCNC(=O)C2)c(OC(C)C)c1 [nutlin-3a]
- toxicity to normal cells (cell apoptosis proportion) [2]: can cause cell apoptosis

Molecule: CRO: cytosine-rich oligonucleotide, negative control, SEQ ID NO: 13 (DNA CCTCCTCCTCCTTCTCCTCCTCCTCC; DNA, backbone and methylation of C not given here; further chemistry not fully specified)
- binding to NCL (NCL [3]): cannot bind to either NCL or MDM2
- capture of MDM2 (MDM2 [4]): cannot capture either NCL or MDM2
- binding / recruitment of MDM2 (MDM2 [5]): cannot bind to either NCL or MDM2
- capture of NCL (NCL [6]): cannot capture either NCL or MDM2

Molecule: iSN04: oligonucleotide specifically binding to NCL, SEQ ID NO: 14: 5′-AGATTAGGGTGAGGGTGA-3′ (DNA, backbone not given here)
- G4 structural characteristics (fluorescence signal intensity) ([7]; 5 μM in 100 mM K+ solution): 1000-2000
- G4 structural characteristics (fluorescence signal intensity) ([7]; 5 μM in water (no K+)): No G4 structural characteristics were detected
- binding to NCL (NCL [3]): can only bind to NCL
- capture of MDM2 (MDM2 [4]): cannot capture MDM2
- effect on the interaction between NCL and MDM2 [8]: blocks the binding of NCL to MDM2
- binding / recruitment of MDM2 (MDM2 [5]): cannot recruit MDM2 depending on its interaction with NCL
- capture of NCL (NCL [6]): can capture NCL only at a high concentration

Reference: patent US20260256923A1, “NEW RECRUITMENT ELEMENT OF UBIQUITIN LIGASE AND USE THEREOF” (SHENZHEN LINGGENE BIOTECH CO., LTD., priority 2023, published 2026)
